From EP4111863A1, “PHOSPHORUS USE EFFICIENCY ENHANCERS AS PLANT GROWTH PROMOTORS” (EuroChem Antwerpen, priority 2021, dated 2023)

Key:
[1] = tested on: Arabidopsis; assay: Arabidopsis vertical plate growth assay (primary root length, shoot biomass); type: in vivo, Arabidopsis thaliana; settings: Table 2; low phosphate, versus control without compound
Description: (§1) All Arabidopsis plant experiments were performed using the Arabidopsis thaliana Columbia-0 background. The Arabidopsis pSPX1::GUS line is described in the […] 2008, 54: 965-975. For rice, the cultivar Nipponbare was used. For maize, the cultivars DKC 2931 and B104 were used for regular pot experiments and sand-based pot experiments, respectively. For soybean, the cultivar Primus was used. […] The medium was solidified due to the addition of 0,6% Gelrite, unless stated otherwise. In case of vertical plates (root length and root hair measurements), the medium was supplied with 0.5% of sucrose and 1 µM (low phosphate, 1 µM KH2PO4, 9.9 mM KCI), 10 µM (low phosphate 10 µM KH2PO4, 9.9 mM KCI) or 1.25 mM KH2PO4 (high phosphate). Arabidopsis seeds were stratified for 2 days at 4 °C before germination. Seedlings were germinated in climate-controlled growth chambers at 22 °C under continuous light (100 µmol m^-2 s^-1). Husked rice seeds were germinated on wetted Whatman paper for 2 days at 37 °C and then transferred to Sterivent boxes or square Petri dishes with solid medium. Maize and soybean seeds were wetted 24 hours at room temperature prior to sowing in pots.
Arabidopsis primary root growth experiments were done on MS1/2 on vertical standing plates and roots were measured 11 days after germination. Roots were imaged using a flatbed scanner (EPSON Expression 11000XL) and root length was measured using ImageJ software. Arabidopsis shoot biomass was determined in 11 days after germination and growth on vertical standing plates with modMS. Arabidopsis leaf area was measured 21 days after germination on horizontal plates with modMS medium. Plates were scanned from the top using a flatbed scanner (EPSON Expression 11000XL) and the visible leaf area was measured using ImageJ software. Rice plate experiments used vertically standing Petri dishes containing MS1/2 medium (low phosphate - 0.001 mM) solidified with 0.8% washed agar. Plant height was measured 11 days after germination. Rice box experiments used modMS medium and a low phosphate condition of 0.025 mM phosphate. Plant height was measured 13 days after germination. All growth experiments occurred with 10 µM of compound and in low phosphate conditions, unless stated otherwise. Controls always received the same DMSO concentration.

[2] = tested on: SPX1; assay: Chemical activity assessment: SPX1 phosphate starvation biomarker, pSPX1::GUS reporter line, GUS stained area; type: in vivo, Arabidopsis thaliana; settings: Table 3; 50 µM compound, low phosphate modMS liquid medium, 7 days after germination; low phosphate control average of the same plate
Description: as §1
For the chemical activity assessment 3 to 8 seeds per well of Arabidopsis pSPX1::GUS line were sown in 96-well plates containing 150 µl of low phosphate modMS liquid medium containing 1% of sucrose. Compounds were added in 50 µM concentration, starting from a 5 mM stock of compounds solved in DMSO. Different chemical substances were separately added to different wells. Per plate, 16 control wells were used, 8 containing only the low phosphate medium and 1% DMSO, and 8 containing high phosphate medium and 1% DMSO. 7 days after germination, plates were scanned using a flatbed scanner (EPSON Expression 11000XL) and analyzed for leaf size. After scanning, the growth medium was replaced by GUS staining solution (see Plant Mol. Biol. Rep. 1994, 12: 37-42 for details) and incubated for 1.5 hours at 37 °C. The plates were scanned a second time and analyzed for GUS signal area. Measurements of both leaf area and GUS signal area were conducted by filtering out and measure the green and blue signal, respectively using ImageJ software. If the green leaf area was 50% or less than the control, samples were omitted. Additionally, all results were visually screened for leaf size and GUS signal.

SMILES | Primary root length (in % versus control) [1] [%] | GUS (SPX1) stained area normalized to the number of seeds (pixels) [2] [pixels]
Cc1nc(N2CCOCC2)sc1C(=O)NN [Compound 4.1] | 118 | –
CC1(C)CN(Cc2ccc(-n3ccnc3)cc2)CCO1 | – | 16
O=S(=O)(CCN1CCOC2CCCCC21)c1cc(Cl)ccc1Cl (stereo not drawn) | – | 9
CC1CCCN(C(C)CNS(=O)(=O)N2CCOCC2)C1 (stereo not drawn) | – | 46
Cn1c(Cl)cnc1CN1CCOC(c2ccc(Cl)cc2)C1 (stereo not drawn) | – | 17
N#Cc1c(F)cccc1Sc1nnc(N2CCOCC2)s1 | – | 35
CC(CNC(=O)N1CCCCC1c1cccn1C)CN1CCOCC1 (stereo not drawn) | – | 65
Cc1ccc(C2COCCN2C(=O)Nc2nnc(C(F)F)s2)o1 (stereo not drawn) | – | 26
CC1CN(C(=O)c2nn(-c3ccccc3)c(=O)c3ccccc23)CC(C)O1 (stereo not drawn) | – | 10
CCc1cc(N2CC(C)OCC2c2ccccc2)nc(-c2ccccn2)n1 (stereo not drawn) | – | 5
CCC1COCCN1C(=O)Nc1nnc(C(F)(F)F)s1 (stereo not drawn) | – | 21
CC1CN(C(=O)CCc2nc(-c3ccsc3)no2)C(C)CO1 (stereo not drawn) | – | 1
Cc1cnn(CC2CN(C(C)C(=O)Nc3cc(C)no3)CCO2)c1 (stereo not drawn) | – | 7
OC(COc1cccc2ccccc12)CN1CCOC2CCCCC21 (stereo not drawn) | – | 34
O=C(c1cc(-c2ccccc2)nc2c1cnn2Cc1cccc(F)c1)N1CCOCC1 | – | 14
Cc1nn(C)c(C)c1C1CCCN1CC(O)CN1CCOCC1 (stereo not drawn) | – | 37
O=C(Nc1ccc(F)c(C(F)(F)F)c1)N1CCOCC1 | – | 8
CN1CCOC(C(=O)NC(c2c(F)cccc2F)C(F)(F)F)C1 (stereo not drawn) | – | 5
CCC1CN(C(=O)C(C)OCC2CC2)CC1N1CCOCC1 (stereo not drawn) | – | 62
COc1cc(C(C)=O)ccc1OC(=O)N1CCOCC1 | – | 8
CCC1CN(Cn2nc3ccccn3c2=S)CCO1 (stereo not drawn) | – | 3

SMILES | Primary root length (in % versus control) [1] [%] | GUS (SPX1) stained area normalized to the number of seeds (pixels) [2] [pixels]
CCC(CC)C(CNC(=O)Nc1ccccc1F)N1CCOCC1 (stereo not drawn) | – | 37
CNC(=O)c1sc(N2CCOC(C)C2)nc1C (stereo not drawn) [Compound 4.3] | 122 | –
O=C(C1CN(C(=O)C(c2ccccc2)c2ccccc2)c2ccccc2O1)N1CCOCC1 (stereo not drawn) | – | 30
Cc1ccc(CS(=O)(=O)c2nnc(N3CCOCC3)n2C)cc1 | – | 4
COCCn1c(SCC(=O)N2CCOCC2)nnc1-c1ccncc1 | – | 9
Fc1cc(C2CNCCO2)c(Cl)cc1Cl (stereo not drawn) | – | 27
CC1CN(C(C)c2nc(C3CC3)no2)CCO1 (stereo not drawn) | – | 441
CC1CN(C(=O)c2cnn(C)c2C(F)(F)F)CC(C)O1 (stereo not drawn) | – | 19
O=C(COn1nnc2ccc(Cl)cc21)Nc1cc(S(=O)(=O)N2CCOCC2)ccc1Cl | – | 7
O=S(=O)(c1ccc(Sc2nnc(-c3ccncc3)[nH]2)nc1)N1CCOCC1 | – | 6
Cc1ccc(C2CN(Cc3cc(-c4ccco4)on3)CCO2)c(C)c1 (stereo not drawn) | – | 15
Cc1ccc2cccc(OC(=O)N3CCOCC3)c2n1 | – | 21
CN(C)c1nc(CN2CCOCC2CC(=O)c2ccco2)ns1 (stereo not drawn) | – | 330
CC1(C)C(NC(=O)Nc2cc(Cl)ccc2N2CCOCC2)C2CCOC21 (stereo not drawn) | – | 28
CC1(C)CN(C(=O)c2csc(-c3cccs3)n2)CCO1 | – | 6
Cc1c(C(=O)NCC2CN(CC(C)C)CCO2)cnn1C (stereo not drawn) | – | 9
CN(Cc1ccccc1N1CCOCC1)C(=O)C12CC3CC(CC(C3)C1)C2 | – | 3
C(=C\c1cc2ccccc2nc1N1CCOCC1)/c1nc2ccccc2s1 | – | 0
Cc1cc(I)ccc1NC(=O)CN1CCOC(C)C1 (stereo not drawn) | – | 17
CCC(CC)C(CNC(=O)c1cc(C)nc2onc(C)c12)N1CCOCC1 (stereo not drawn) | – | 7
CC1CN(Cc2csc(NC(=O)c3ccco3)n2)CC(C)O1 (stereo not drawn) | – | 2

SMILES | Primary root length (in % versus control) [1] [%] | GUS (SPX1) stained area normalized to the number of seeds (pixels) [2] [pixels]
CCn1c(Sc2nnnn2-c2ccccc2)nc2cc(S(=O)(=O)N3CCOCC3)ccc21 | – | 14
CC(NC(=O)N1CCOC(CO)C1)c1ccc(Br)cc1 (stereo not drawn) | – | 129
NC(=O)C1CN(c2ncc(Br)cn2)CCO1 (stereo not drawn) | – | 17
NC(=O)C1COCCN1c1cnc2cc(Cl)c(Cl)cc2n1 (stereo not drawn) | – | 3
COCC1CN(C(=O)NCCc2c[nH]c3ccc(F)cc23)CCO1 (stereo not drawn) | – | 13
FC(F)(F)Cn1ccnc1CN1CCOC2(CCCC2)C1 | – | 38
COC(=O)C1CN(c2ccc(C(F)(F)F)cn2)C[C@@H](C)O1 (stereo partly drawn) | – | 1
COc1ccc(-c2nnc(SCC(=O)N3CCOCC3)o2)cc1OC | – | 32
Cc1ccc(C(CN2CCOCC2)NC(=O)c2cc(-c3ccccc3)[nH]n2)cc1 (stereo not drawn) | – | 0
FC(F)(F)c1ccnc(N2CCOC(c3nccs3)C2)n1 (stereo not drawn) | – | 0
CCc1ccc(C(C)NCC2(N3CCOCC3)CCSC2)o1 (stereo not drawn) | – | 151
CCc1nsc(N2CCOC(C)C2)n1 (stereo not drawn) | – | 44
CC1COCCN1C(=O)CCc1nc(-c2cccs2)no1 (stereo not drawn) | – | 17
O=C(NCc1ccccc1CS(=O)(=O)N1CCOCC1)c1ccc([N+](=O)[O-])cc1 | – | 7
c1ccc2nc(N3CCOCC3)cnc2c1 | – | 43
CCC1CN(C(=O)CCc2nc(-c3cccs3)no2)CCO1 (stereo not drawn) | – | 23
CCc1ncncc1C(=O)NCCN1CC(C)OC(C)C1 (stereo not drawn) | – | 362
O=S(=O)(c1cccc(-c2nnc(SCc3ccccc3)o2)c1)N1CCOCC1 | – | 43
CC1(C)CN(C(=O)c2csc(-c3ccsc3)n2)CCO1 | – | 31
CC(C)CCNC(=O)c1cc(S(=O)(=O)N2CCOCC2)cn1C | – | 1
CC1CN(C(=O)C2(c3ccc(F)cc3)CC2)CC1N1CCOCC1 (stereo not drawn) | – | 53
